One may read the pEC50 as −log10 of the EC50, conventionally taken in molar units.

For test [1], the target named is T1, Vasoactive intestinal polypeptide receptor 2 (Homo sapiens, UniProt P41587).
T1 sequence (P41587 whole entry): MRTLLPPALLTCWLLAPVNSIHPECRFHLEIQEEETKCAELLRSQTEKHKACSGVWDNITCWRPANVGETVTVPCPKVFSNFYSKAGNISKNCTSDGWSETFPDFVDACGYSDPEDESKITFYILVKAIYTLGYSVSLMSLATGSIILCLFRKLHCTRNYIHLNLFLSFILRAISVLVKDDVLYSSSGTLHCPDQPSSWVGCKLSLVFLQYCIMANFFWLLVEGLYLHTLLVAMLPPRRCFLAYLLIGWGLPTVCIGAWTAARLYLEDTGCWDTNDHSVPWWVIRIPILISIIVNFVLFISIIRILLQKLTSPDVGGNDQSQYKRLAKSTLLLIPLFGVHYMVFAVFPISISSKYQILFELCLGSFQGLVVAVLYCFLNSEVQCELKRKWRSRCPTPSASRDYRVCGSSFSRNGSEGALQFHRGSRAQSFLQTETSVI
Nature of the test: Agonist activity at human VIPR2 expressed in CHOK1 cells assessed as intracellular cAMP accumulation after 60 mins by PathHunter assay. It counts as functional, cell-based. On the technique in general: cAMP levels reflect the balance of adenylyl cyclase and phosphodiesterase activity.

For test [2], the target named is T2, Vasoactive intestinal polypeptide receptor 1 (Homo sapiens, UniProt P32241).
T2 sequence (P32241 whole entry): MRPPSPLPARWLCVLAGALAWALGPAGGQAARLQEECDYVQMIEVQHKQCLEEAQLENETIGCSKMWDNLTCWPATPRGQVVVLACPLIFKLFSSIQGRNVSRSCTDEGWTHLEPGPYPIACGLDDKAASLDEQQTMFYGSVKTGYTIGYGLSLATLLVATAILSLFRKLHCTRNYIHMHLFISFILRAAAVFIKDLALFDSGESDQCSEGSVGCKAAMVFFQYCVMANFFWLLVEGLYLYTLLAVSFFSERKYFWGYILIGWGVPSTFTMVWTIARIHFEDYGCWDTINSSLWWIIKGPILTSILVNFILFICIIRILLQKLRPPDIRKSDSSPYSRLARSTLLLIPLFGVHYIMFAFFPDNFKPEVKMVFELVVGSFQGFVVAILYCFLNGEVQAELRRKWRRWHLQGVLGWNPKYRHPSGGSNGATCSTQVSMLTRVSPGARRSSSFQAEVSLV
Nature of the test: Agonist activity at human VIPR1 expressed in CHOK1 cells assessed as intracellular cAMP accumulation after 60 mins by PathHunter assay. It counts as functional, cell-based.

pEC50: −log10 of the molar value. Numbered stars: 1 amine (or outer) side, 2 acyl side, 3 side chain; on linkers, the order of the positions; unused ones are H or OH. Square brackets hold non-standard residues; d marks the D form. Peptide text beside a SMILES is read from it. ξ: configuration not given here. X1 = O=C([C@H]1CCC[C@@H]1N[*:1])[*:2]; X2 = O=C([C@H]1CNC[C@@H]1N[*:1])[*:2]; ξβ3hN = NC(=O)CC(N)CC(=O)O; ξβ3hL = CC(C)CC(N)CC(=O)O; ξβ3hK = NCCCCC(N)CC(=O)O; βAla = NCCC(=O)O

Regarding `CC[C@H](C)[C@H](NC(=O)[C@H](C)NC(=O)[C@H](CC(N)=O)NC(=O)CC(CC(C)C)NC(=O)[C@H](Cc1ccc(O)cc1)NC(=O)[C@H](CCCCN)NC(=O)[C@H](CCCCN)NC(=O)CC(NC(=O)[C@H](C)NC(=O)[C@H](CC(C)C)NC(=O)[C@H](CCC(N)=O)NC(=O)CC(CCCCN)NC(=O)[C@H](CCCNC(=N)N)NC(=O)[C@H](CC(C)C)NC(=O)[C@H](CCCNC(=N)N)NC(=O)CC(NC(=O)[C@H](Cc1ccc(O)cc1)NC(=O)[C@H](CC(N)=O)NC(=O)[C@H](CC(=O)O)NC(=O)CC(NC(=O)[C@H](Cc1ccccc1)NC(=O)[C@@H](NC(=O)[C@H](C)NC(=O)CC(CC(=O)O)NC(=O)[C@@H](Cc1ccccc1)NC(=O)[C@@H](N)Cc1cnc[nH]1)C(C)C)C(C)O)C(C)O)C(C)C)C(=O)NC(CC(=O)N[C@@H](CC(N)=O)C(=O)O)CC(C)C` (stereo partly specified), the figures for the pEC50 in test [1] and in test [2] were 6.22 and 6.04, respectively.
Taken in the same sequence, the figures for `CC[C@H](C)[C@H](NC(=O)[C@H](C)NC(=O)[C@H](CC(N)=O)NC(=O)CC(CC(C)C)NC(=O)[C@H](Cc1ccc(O)cc1)NC(=O)[C@H](CCCCN)NC(=O)[C@H](CCCCN)NC(=O)CC(NC(=O)[C@H](C)NC(=O)[C@H](CC(C)C)NC(=O)[C@H](CCC(N)=O)NC(=O)CC(CCCCN)NC(=O)[C@H](CCCNC(=N)N)NC(=O)[C@H](CC(C)C)NC(=O)[C@H](CCCNC(=N)N)NC(=O)CC(NC(=O)[C@H](Cc1ccc(O)cc1)NC(=O)CC(CC(N)=O)NC(=O)[C@H](CC(=O)O)NC(=O)[C@@H](NC(=O)[C@H](Cc1ccccc1)NC(=O)CC(NC(=O)[C@H](C)NC(=O)[C@H](CC(=O)O)NC(=O)[C@@H](Cc1ccccc1)NC(=O)[C@@H](N)Cc1cnc[nH]1)C(C)C)[C@@H](C)O)C(C)O)C(C)C)C(=O)NC(CC(=O)N[C@@H](CC(N)=O)C(=O)O)CC(C)C` (stereo partly specified) were 6.00 and < 6.00.
Taken in the same sequence, the figures for `CC[C@H](C)[C@H](NC(=O)[C@H](C)NC(=O)[C@H](CC(N)=O)NC(=O)CC(CC(C)C)NC(=O)[C@H](Cc1ccc(O)cc1)NC(=O)[C@H](CCCCN)NC(=O)[C@H](CCCCN)NC(=O)CC(NC(=O)[C@H](C)NC(=O)[C@H](CC(C)C)NC(=O)[C@H](CCC(N)=O)NC(=O)CC(CCCCN)NC(=O)[C@H](CCCNC(=N)N)NC(=O)[C@H](CC(C)C)NC(=O)[C@H](CCCNC(=N)N)NC(=O)CC(NC(=O)[C@H](Cc1ccc(O)cc1)NC(=O)[C@H](CC(N)=O)NC(=O)[C@H](CC(=O)O)NC(=O)[C@@H](NC(=O)[C@H](Cc1ccccc1)NC(=O)[C@@H](NC(=O)[C@H](C)NC(=O)[C@H](CC(=O)O)NC(=O)[C@@H](Cc1ccccc1)NC(=O)[C@@H](N)Cc1cnc[nH]1)C(C)C)[C@@H](C)O)C(C)O)C(C)C)C(=O)NC(CC(=O)N[C@@H](CC(N)=O)C(=O)O)CC(C)C` (stereo partly specified) were 6.46 and 3.21.
On to `CC[C@H](C)[C@H](NC(=O)[C@H](C)NC(=O)[C@H](CC(N)=O)NC(=O)CC(CC(C)C)NC(=O)[C@H](Cc1ccc(O)cc1)NC(=O)[C@H](CCCCN)NC(=O)[C@H](CCCCN)NC(=O)CC(NC(=O)[C@H](C)NC(=O)[C@H](CC(C)C)NC(=O)[C@H](CCC(N)=O)NC(=O)CC(CCCCN)NC(=O)[C@H](CCCNC(=N)N)NC(=O)[C@H](CC(C)C)NC(=O)[C@H](CCCNC(=N)N)NC(=O)CC(NC(=O)[C@H](Cc1ccc(O)cc1)NC(=O)[C@H](CC(N)=O)NC(=O)[C@H](CC(=O)O)NC(=O)[C@@H](NC(=O)[C@H](Cc1ccccc1)NC(=O)CC(NC(=O)[C@H](C)NC(=O)[C@H](CC(=O)O)NC(=O)[C@@H](Cc1ccccc1)NC(=O)[C@@H](N)Cc1cnc[nH]1)C(C)C)[C@@H](C)O)C(C)O)C(C)C)C(=O)NC(CC(=O)N[C@@H](CC(N)=O)C(=O)O)CC(C)C` (stereo partly specified), for which the negative-log EC50 (pEC50) in test [1] was 7.30; in test [2], 7.15.
Taken in the same sequence, the figures for `CC[C@H](C)[C@H](NC(=O)[C@H](C)NC(=O)[C@H](CC(N)=O)NC(=O)CC(CC(C)C)NC(=O)[C@H](Cc1ccc(O)cc1)NC(=O)[C@H](CCCCN)NC(=O)[C@H](CCCCN)NC(=O)CC(NC(=O)[C@H](C)NC(=O)[C@H](CC(C)C)NC(=O)[C@H](CCC(N)=O)NC(=O)CC(CCCCN)NC(=O)[C@H](CCCNC(=N)N)NC(=O)[C@H](CC(C)C)NC(=O)[C@H](CCCNC(=N)N)NC(=O)CC(NC(=O)[C@H](Cc1ccc(O)cc1)NC(=O)[C@H](CC(N)=O)NC(=O)[C@H](CC(=O)O)NC(=O)[C@@H](NC(=O)[C@H](Cc1ccccc1)NC(=O)[C@H]1CCC[C@@H]1NC(=O)[C@H](C)NC(=O)[C@H](CC(=O)O)NC(=O)[C@@H](Cc1ccccc1)NC(=O)[C@@H](N)Cc1cnc[nH]1)[C@@H](C)O)C(C)O)C(C)C)C(=O)NC(CC(=O)N[C@@H](CC(N)=O)C(=O)O)CC(C)C` (stereo partly specified) were < 6.00 and 7.05.
For `CC[C@H](C)[C@H](NC(=O)[C@H](CO)NC(=O)[C@H]1CCC[C@@H]1NC(=O)[C@H](CC(C)C)NC(=O)[C@H](Cc1ccc(O)cc1)NC(=O)[C@H]1CNC[C@@H]1NC(=O)[C@H](CCCCN)NC(=O)[C@H](C)NC(=O)[C@H](C)NC(=O)[C@H]1CCC[C@@H]1NC(=O)[C@H](CCC(N)=O)NC(=O)[C@H](CCCCN)NC(=O)[C@H](CCCNC(=N)N)NC(=O)[C@H](CC(C)C)NC(=O)[C@H](CCCNC(=N)N)NC(=O)[C@@H](NC(=O)[C@H](Cc1ccc(O)cc1)NC(=O)[C@H](CC(N)=O)NC(=O)[C@H](CC(=O)O)NC(=O)[C@@H](NC(=O)[C@H](Cc1ccccc1)NC(=O)[C@@H](NC(=O)[C@H](C)NC(=O)[C@H](CC(=O)O)NC(=O)[C@H](CO)NC(=O)[C@H](Cc1cnc[nH]1)NC(C)=O)C(C)C)[C@@H](C)O)[C@@H](C)O)C(=O)N[C@@H](CCCCN)C(=O)NC(CC(N)=O)CC(=O)N[C@@H](CCCCN)C(=O)N[C@@H](CCCNC(=N)N)C(=O)N[C@@H](Cc1ccc(O)cc1)C(=O)O` (stereo partly drawn) (Ac-HSDAVFTDNYTRLRKQ[X1]AAK[X2]YL[X1]SIK[ξβ3hN]KRY-OH) the same measures were 10.11 and 9.71.
For `CC(=O)N[C@@H](Cc1cnc[nH]1)C(=O)N[C@@H](CO)C(=O)N[C@@H](CC(=O)O)C(=O)N[C@@H](C)C(=O)N[C@H](C(=O)N[C@@H](Cc1ccccc1)C(=O)N[C@H](C(=O)N[C@@H](CCC(=O)O)C(=O)N[C@@H](CC(N)=O)C(=O)N[C@@H](Cc1ccc(O)cc1)C(=O)N[C@H](C(=O)N[C@@H](CCCCN)C(=O)N[C@@H](CC(C)C)C(=O)N[C@@H](CCCNC(=N)N)C(=O)N[C@@H](CCCCN)C(=O)N[C@@H](CCC(N)=O)C(=O)N[C@@H](CC(C)C)C(=O)N[C@@H](C)C(=O)N[C@@H](C)C(=O)N[C@H]1CNC[C@@H]1C(=O)N[C@@H](CCCCN)C(=O)N[C@@H](Cc1ccc(O)cc1)C(=O)N[C@H]1CCC[C@@H]1C(=O)N[C@@H](CC(N)=O)C(=O)N[C@@H](CC(=O)O)C(=O)N[C@@H](CC(C)C)C(=O)NC(CCCCN)CC(=O)N[C@@H](CCCCN)C(=O)NCC(=O)NCCC(=O)N[C@H](C(=O)O)[C@@H](C)O)[C@@H](C)O)[C@@H](C)O)C(C)C` (stereo partly drawn) (Ac-HSDAVFTENYTKLRKQLAA[X2]KY[X1]NDL[ξβ3hK]KG[βAla]T-OH) the same measures were 9.02 and < 6.00.
With `CC(=O)N[C@@H](Cc1cnc[nH]1)C(=O)N[C@@H](CO)C(=O)N[C@@H](CC(=O)O)C(=O)N[C@@H](C)C(=O)N[C@H](C(=O)N[C@@H](Cc1ccccc1)C(=O)N[C@H](C(=O)N[C@@H](CCC(=O)O)C(=O)N[C@@H](CC(N)=O)C(=O)N[C@@H](Cc1ccc(O)cc1)C(=O)N[C@H](C(=O)N[C@@H](CCCCN)C(=O)N[C@@H](CC(C)C)C(=O)N[C@@H](CCCNC(=N)N)C(=O)N[C@@H](CCCCN)C(=O)N[C@@H](CCC(N)=O)C(=O)N[C@@H](CC(C)C)C(=O)N[C@@H](C)C(=O)N[C@H]1CCC[C@@H]1C(=O)N[C@@H](CCCCN)C(=O)N[C@@H](CCCCN)C(=O)N[C@@H](Cc1ccc(O)cc1)C(=O)N[C@H]1CCC[C@@H]1C(=O)N[C@@H](CC(N)=O)C(=O)N[C@@H](CC(=O)O)C(=O)NC(CC(=O)N[C@@H](CCCCN)C(=O)N[C@@H](CCCCN)C(=O)NCC(=O)NCCC(=O)N[C@H](C(=O)O)[C@@H](C)O)CC(C)C)[C@@H](C)O)[C@@H](C)O)C(C)C` (stereo partly drawn) (Ac-HSDAVFTENYTKLRKQLA[X1]KKY[X1]ND[ξβ3hL]KKG[βAla]T-OH), the pEC50 in test [1] is 6.98; in test [2], 8.04.

The values are drawn from ChEMBL document CHEMBL4257221, “Peptides comprising non-natural amino acids and methods of making and using the same” (2016).
